Data taken from US20110190192A1, “METHODS FOR TREATING ERECTILE DYSFUNCTION IN PATIENTS WITH INSULIN-DEPENDENT DIABETES” (Cebix Inc., priority 2009, published 2011).

What was measured:
[1] = test system: type 1 diabetes patients with peripheral neuropathy; assay: ECG and vital signs; format: in vivo, human; details: for BPd (diastolic blood pressure) change, mean ± SD / BPd (diastolic blood pressure) change, median / BPs (systolic blood pressure) change, mean ± SD / BPs (systolic blood pressure) change, median / Heart rate change, mean ± SD / Heart rate change, median / QTc-interval Bazett change, mean ± SD / QTc-interval Bazett change, median / QTc-interval Fredericia change, mean ± SD / QTc-interval Fredericia change, median: baseline to 6 months (visit 4), PP data set
Experimental: ECG was performed at baseline and at end of study, i.e., visit 4 (at 6 months±2 weeks from the S/B visit).

[2] = test system: type 1 diabetes patients with peripheral neuropathy; details: in vivo
Description: (§1) The safety measurements comprised collection of AEs, spontaneously reported by the patient or recorded by the investigator at each clinical visit.
(§2) An AE was classified as “unexpected event” (i.e., if not specifically listed in the Investigator's Brochure) in terms of nature, severity, or frequency. All AEs, including intercurrent illnesses and increased severity or frequency of sign/symptoms of a concomitant disease was reported and documented as described below. AEs were documented on an “Adverse Event/Serious Adverse Event” page of the CRF and in the patient's medical records. Any AE occurring at any time after the end of the study, considered to be caused by the study medication—and therefore a possible adverse drug reaction—was reported to the sponsor.
(§3) Hypoglycemic events are common events in insulin-treated patients. For practical reasons only severe hypoglycemic events, i.e., if the patient required assistance from another person in order to regain normoglycaemia, were reported as an AE.
(§4) The period of observation for AEs extended from the time the patient started on trial medication until end of the study. AEs were divided into the categories “serious” and “non-serious”. This determined the procedure used to report/document the AE.
(§5) Descriptive statistics were used for safety variables. […] The safety analysis set included all patients who obtained at least one dose of the investigational drug. AEs were coded according to the MedDRA dictionary. The frequencies of AEs are tabulated by body system and included/preferred term.

[3] = test system: type 1 diabetes patients with peripheral neuropathy; assay: Adverse events
Description: as §1, §2, §3, §4, §5

[4] = C-peptide concentrations in plasma (time-resolved fluoroimmunoassay); details: dose ranges of the study; very small patient number
Experimental: Blood samples for determination of C-peptide in plasma were drawn at the S/B visit, visit 2, and at end of study (visit 4).
The sampling of C-peptide in plasma at visits 2 and 4 coincided with the clinical visit and the time between the most recent administration of the trial drug and sampling varied between patients.
C-peptide plasma levels were measured at baseline, and after 3 and 6 months of treatment. Analysis was performed by the Department of Clinical Chemistry Karolinska University Hospital, Solna using a time-resolved fluoroimmunoassay (AutoDelfia, Wallac Oy, Turku, Finland).
C-peptide plasma levels were also measured pre-dosing in the morning in 22 randomly selected patients at the Karolinska Hospital after 4.5 months of study treatment (visit 3).

[5] = high-dose C-peptide, treatment emergent, any severity, PP data set
[6] = low-dose C-peptide, treatment emergent, any severity, PP data set

With `CC(C)C[C@H](NC(=O)[C@H](C)NC(=O)[C@H](CC(C)C)NC(=O)[C@@H]1CCCN1C(=O)[C@H](CCC(N)=O)NC(=O)[C@H](CC(C)C)NC(=O)[C@H](CO)NC(=O)CNC(=O)[C@H](C)NC(=O)CNC(=O)[C@@H]1CCCN1C(=O)CNC(=O)CNC(=O)CNC(=O)[C@H](CC(C)C)NC(=O)[C@H](CCC(=O)O)NC(=O)[C@@H](NC(=O)[C@H](CCC(N)=O)NC(=O)CNC(=O)[C@@H](NC(=O)[C@H](CCC(N)=O)NC(=O)[C@H](CC(C)C)NC(=O)[C@H](CC(=O)O)NC(=O)[C@H](CCC(=O)O)NC(=O)[C@H](C)NC(=O)[C@@H](N)CCC(=O)O)C(C)C)C(C)C)C(=O)N[C@@H](CCC(=O)O)C(=O)NCC(=O)N[C@@H](CO)C(=O)N[C@@H](CC(C)C)C(=O)N[C@@H](CCC(N)=O)C(=O)O` [C-peptide, Recombinant human C-peptide] the “Decrease in systolic blood pressure, high-dose vs low-dose group” value ([1]; 6 months, p<0.004, not statistically different from placebo) was “significantly greater decrease”, the “BPd (diastolic blood pressure) change, mean ± SD” value ([1]; high-dose C-peptide) was −2.6 ± 8.0 mmHg and the “BPd (diastolic blood pressure) change, median” value ([1]; high-dose C-peptide) was −1.0 mmHg. The “BPs (systolic blood pressure) change, mean ± SD” value ([1]; high-dose C-peptide) was −8.8 ± 10.0 mmHg, the “BPs (systolic blood pressure) change, median” value ([1]; high-dose C-peptide) was −8.0 mmHg and the “Heart rate change, mean ± SD” value ([1]; high-dose C-peptide) was −3.2 ± 10.0 bpm. The “Heart rate change, median” value ([1]; high-dose C-peptide) was −4.0 bpm, the “QTc-interval Bazett change, mean ± SD” value ([1]; high-dose C-peptide) was -4.5 ± 20.3 ms and the “QTc-interval Bazett change, median” value ([1]; high-dose C-peptide) was 0.0 ms. For the same compound, the “QTc-interval Fredericia change, mean ± SD” value ([1]; high-dose C-peptide) was -0.5 ± 16.2 ms, the “QTc-interval Fredericia change, median” value ([1]; high-dose C-peptide) was 0.0 ms and the “BPd (diastolic blood pressure) change, mean ± SD” value ([1]; low-dose C-peptide) was −2.7 ± 8.2 mmHg. For the same compound, the “BPd (diastolic blood pressure) change, median” value ([1]; low-dose C-peptide) was −1.0 mmHg, the “BPs (systolic blood pressure) change, mean ± SD” value ([1]; low-dose C-peptide) was −2.1 ± 12.8 mmHg and the “BPs (systolic blood pressure) change, median” value ([1]; low-dose C-peptide) was −1.0 mmHg. The “Heart rate change, mean ± SD” value ([1]; low-dose C-peptide) was −0.9 ± 8.2 bpm, the “Heart rate change, median” value ([1]; low-dose C-peptide) was −2.0 bpm and the “QTc-interval Bazett change, mean ± SD” value ([1]; low-dose C-peptide) was -0.1 ± 17.5 ms. The “QTc-interval Bazett change, median” value ([1]; low-dose C-peptide) was 0.0 ms, the “QTc-interval Fredericia change, mean ± SD” value ([1]; low-dose C-peptide) was 0.9 ± 14.1 ms and the “QTc-interval Fredericia change, median” value ([1]; low-dose C-peptide) was 1.3 ms. For the same compound, the “Acute HIV infection, AE intensity (number of AE incidences)” value [2] was “M (1)”, the “Herpes zoster, AE intensity (number of AE incidences)” value [2] was “M (1)” and the “Adverse drug reactions or significant changes in safety variables (blood chemistries and vital signs)” value ([3]; 500-1,500 nmoL/24 h, 6 months) was “no adverse drug reactions or significant changes in safety variables”. For the same compound, the Local reactions ([3]; S.C. injection, 6 months) was “No local reactions were reported”, the “Deaths during the study” value ([3]; all groups) was “No deaths” and the “Serious adverse events (SAEs)” value ([3]; high-dose C-peptide (1,500 nmoL/24 h)) was “Two”. The “Relationship of the SAEs to the trial medication” value ([3]; high-dose C-peptide, investigators' assessment) was “unlikely/not related”, the “Dizziness (SOC Injury poisoning, procedural complications), number of AEs” value [3, 5] was 1 and the “Hyperaesthesia, number of AEs” value [3, 5] was 1. For the same compound, the “Hyperaesthesia, number of AEs probably/possibly related to study drug” value [3, 5] was “(1)”, the “Hypoglycemia, number of AEs probably/possibly related to study drug” value [3, 5] was “(1)” and the “Injection site burning, number of AEs” value [3, 5] was 1. The “Injection site burning, number of AEs probably/possibly related to study drug” value [3, 5] was “(1)”, the “Pain in extremity (SOC Musculoskeletal and connective tissue disorder), number of AEs” value [3, 5] was 4 and the “Paraesthesia, number of AEs probably/possibly related to study drug” value [3, 5] was “(2)”. The “Skin infection (SOC Infections and infestations), number of AEs” value [3, 5] was 1, the “Skin infection (SOC Skin and subcutaneous tissue disorders), number of AEs” value [3, 5] was 2 and the “Tendosynovitis stenosans, number of AEs” value [3, 5] was 1. For the same compound, the “Total number of AEs” value [3, 5] was 156, the “Total number of AEs probably/possibly related to study drug” value [3, 5] was “(5)” and the “AEs of moderate intensity” value ([3]; high-dose group) was 43 AEs. For the same compound, the “AEs of severe intensity” value ([3]; high-dose group) was 9 AEs, the “AEs reported as possible/probable related to the study drug” value ([3]; high-dose group) was 5 AEs and the “Number of AEs reported” value ([3]; high-dose group, n=52, ITT) was 154 AEs. For the same compound, the “Patients with AEs” value ([3]; high-dose group, out of 52) was 44 patients, the “Cardiac arrhythmia (SVES), number of AEs” value [3, 6] was 1 and the “Dizziness (SOC Nervous system disorders), number of AEs” value [3, 6] was 2. For the same compound, the “Elevated serum creatinine, number of AEs” value [3, 6] was 1, the “Hepatic enzyme increase, number of AEs probably/possibly related to study drug” value [3, 6] was “(1)” and the “Hyperglycemia, number of AEs probably/possibly related to study drug” value [3, 6] was “(1)”. For the same compound, the “Hyperthermeasthesia, number of AEs” value [3, 6] was 2, the “Hyperthermeasthesia, number of AEs probably/possibly related to study drug” value [3, 6] was “(2)” and the “Hypoglycemia, number of AEs probably/possibly related to study drug” value [3, 6] was “(1)”. The “Insulin sensitivity increased, number of AEs” value [3, 6] was 1, the “Insulin sensitivity increased, number of AEs probably/possibly related to study drug” value [3, 6] was “(1)” and the “Musculoskeletal chest pain, number of AEs” value [3, 6] was 1. The “Pain in extremity (SOC Musculoskeletal and connective tissue disorder), number of AEs” value [3, 6] was 3, the “Pain in extremity (SOC Musculoskeletal and connective tissue disorder), number of AEs probably/possibly related to study drug” value [3, 6] was “(1)” and the “Paraesthesia, number of AEs probably/possibly related to study drug” value [3, 6] was “(1)”. For the same compound, the “Skin infection (SOC Infections and infestations), number of AEs” value [3, 6] was 5, the “Tachycardia (stress related), number of AEs” value [3, 6] was 1 and the “Total number of AEs” value [3, 6] was 173. For the same compound, the “Total number of AEs probably/possibly related to study drug” value [3, 6] was “(8)”, the “AEs of moderate intensity” value ([3]; low-dose group) was 51 AEs and the “AEs of severe intensity” value ([3]; low-dose group) was 1 AEs. For the same compound, the “AEs reported as possible/probable related to the study drug” value ([3]; low-dose group) was 8 AEs, the “Number of AEs reported” value ([3]; low-dose group, n=56, ITT) was 173 AEs and the “Patients with AEs” value ([3]; low-dose group, out of 56) was 48 patients. The “Accumulation following repeated dosing” value [4] was “no significant accumulation”.
